Tested on: Aβ42-treated hippocampal neurons
Test: In vitro amyloid synaptotoxicity model: mushroom spine percentage in primary hippocampal neuronal cultures
Format: cell-based, mouse
Conditions: 24 h, mean ± SEM
Description: The average percentages of mushroom spines (MS%) in each experimental condition are presented as mean ± SEM (n = 20–30 neurons for each group from three batches of cultures). We observed that 24-h incubation in the presence of 1 µM and 100 nM of C20 rescues mushroom spine loss in Aβ42-treated hippocampal neurons. C20 lost its activity at a 10 nM concentration (Figure 2B, mushroom spine percentage (MS%) in the Control, 29.07 ± 1.15%; Control + C20 [1 µM], 31.32 ± 1.46%; Control + C20 [100 nM], 30.11 ± 0.86%; Control + C20 [10 nM]; […]; Aβ42, 19.82 ± 1.13%; Aβ42 + C20 [1 µM], 29.00 ± 1.94%; Aβ42 + C20 [100 nM], 27.28 ± 1.81%; Aβ42 + C20 [10 nM], 18.64 ± 1.63%; two-way ANOVA following Tukey’s multiple comparisons test, P values are indicated in the Figure).
Primary hippocampal neuronal cultures were prepared as previously described. Briefly, hippocampuses from postnatal day 0–2 FVB/NJ mice were removed and cut into small pieces in ice-cold buffer (1% 10x CMF-HBSS (Gibco, Grand Island, NY, USA; #14185), 1% Pen Strep (Gibco, #15140), 16 MM HEPES (Sigma, St Louis, MO, USA; #H3375), 10 MM NaHCO3 (Sigma, #S5761); pH = 7.2). Cell tissue was dissociated by trituration with 5 mg/mL DNase I solution (Sigma, #DN-25) after papain (Worthington, Columbus, OH, USA; #LK003176) digestion for 30 min at 37 °C. Hippocampal neurons were plated onto poly-D-lysine (Sigma, #P0899) coated 12 mm glass coverslips (Thermo Scientific, Braunschweig, Germany; #CB00120RA1) in 24-well dishes. in Neurobasal/B-27 with the addition of insulin-transferrin-sodium selenite (Sigma-Aldrich). Cells were grown in 1 mL of Neurobasal medium (Gibco, #10888) supplemented with 1% FBS (Gibco, #10500), 2% 50xB27 (Gibco, #17504), 0.05 MM L- Glutamine (Gibco, #250030). The cultures were maintained at 37 °C in a 5% CO2 incubator. Half of the medium was replaced with a new culture medium at DIV 7 and DIV 14. At DIV 14, neurons were fixed for 10 min with 4% paraformaldehyde sucrose in PBS at room temperature.
Neurons were transfected using the calcium phosphate method at DIV 7 as previously described with alterations that were described earlier. The transfection kit was obtained from Clontech (TAKARA Biotechnology, Mountain View, CA, USA; #631312).
Aβ42 peptides were purchased from AnaSpec (Anaspec, Freemont, CA, USA; #AS-20276). Stock solution [1 mg/mL] was prepared as described earlier and stored at −20 °C. Working Aβ42 solution was made immediately prior to treatment of the cells by diluting the stock concentration to 6.6 µM final Aβ peptide concentrations in Neurobasal. The working solution was incubated at +4 °C for 24 h to obtain the oligomeric conditions as described. […]

With `COc1cc2c(cc1OC)C(c1cc3ccccc3oc1=O)=NC(C)(C)C2` [C20, 3-(3-,4-Dihydro-6,7-dimethoxy-3,3-dimethyl-1-isoquinolinyl)-2H-1-benzopyran-2-one] the “mushroom spine percentage (MS%)” value (Aβ42-treated cultures + 10 nM, Aβ42 alone 19.82 ± 1.13%) was 18.64 ± 1.63%, the “mushroom spine percentage (MS%)” value (Aβ42-treated cultures + 100 nM, Aβ42 alone 19.82 ± 1.13%) was 27.28 ± 1.81% and the “mushroom spine percentage (MS%)” value (Aβ42-treated cultures + 1 µM, Aβ42 alone 19.82 ± 1.13%) was 29.00 ± 1.94%. The “mushroom spine percentage (MS%)” value (Control cultures + 100 nM, Control 29.07 ± 1.15%) was 30.11 ± 0.86%.

Reference: publication PMC9653995, “New Positive TRPC6 Modulator Penetrates Blood–Brain Barrier, Eliminates Synaptic Deficiency and Restores Memory Deficit in 5xFAD Mice” (International Journal of Molecular Sciences, 2022)
